# Assays:
# transformed cells = settings: cited from earlier work
# [1] = Stability experiments as preservative in foods and on fresh fruits; assay type: physicochemical; settings: in foods and on the surface of fresh fruits
# Excerpt: (§1) The chelating agents of the present invention can be used as preservatives in perishable items such as foods and pharmaceuticals and to prevent fungal growth on the surface of fresh fruits. Presently chemicals such as citrashine orthophenilphenol thiabendazole are used. […] Microbial and fungal growth is inhibited while the food components are unaffected. The preservative of the present invention has less likelihood of toxicity or untoward reactions if ingested that the present, complex chemical antifungals. The preferred concentration of picolinic acid or acceptable derivative for this use is approximately 1% to approximately 99%.
# KB cells = assay: Effects of picolinic acid on growth (total cell protein); assay type: cell-based, human; settings: 3 mM
# Method: (§2) Cells were plated at 1.5×10^5 cells/60-mm dish; 48 hours later, the medium was removed, and new media with or without 3 mM picolinic acid was added. Total cell protein was determined at the indicated times; each point is the average of triplicate measurements from 2 cultures.
# recurrent plantar wart = assay: Treatment of virus-induced plantar ulcer; assay type: in vivo, human
# Method: A patient with recurrent plantar wart of about 2 cm in diameter was treated with topical picolinic acid. The patient, a pathologist who had difficulty walking because of the pain caused by the ulcer, had experimented with numerous medications for more than three months without any significant results prior to treatment with the picolinic acid. It is relevant to note that many plantar ulcers are transformed into malignant tumors.
# The patient was treated with a solution of 10% picolinic acid in deionized water for one week. […] They then were treated with 10% picolinic acid in Aquaphor. The ointment was placed on the ulcer and on a patch. The patch was replaced every 24 hours.
# metastatic cancer = assay: Systemic administration in metastatic cancer; assay type: in vivo; settings: 00 gelatin capsules at 500 mg per capsule
# Excerpt: A systemic preparation of a picolinic acid, its derivatives or analogs containing approximately 1% to 100% active ingredient may be administered orally, intravenously or by any acceptable route for the treatment of cancer and systemic infections. […] The preparation can be provided as a flavored oral solution. Likewise, an injectable form may be prepared.
# [2] = tested on: metastatic breast cancer lesions; assay: Treatment of metastatic disease to the skull from breast cancer; assay type: in vivo, human; settings: topical 10% picolinic acid in Aquaphor, changed twice daily
# Method: A person with metastatic breast cancer to the skin and bone of the skull was treated with a topical preparation of 10% picolinic acid in Aquaphor. The preparation was applied to the cancerous lesions and to a bandage and changed twice daily. The multiple cancer lesions were approximately 1 to 1.5 cm in diameter.
# normal cells = settings: cited from earlier work
# iron in the cells = settings: cited from earlier work
# psoriasis = assay: Treatment of proliferative skin disorders; assay type: in vivo, human; settings: topical, preliminary information
# Excerpt: Several patients suffering from proliferative skin disorders such as psoriasis have been included in a recent ongoing study of the anti-proliferative effects of topical picolinic acid. […] The patients may be treated with a topical application of approximately 5% to 20% picolinic acid, or a derivative thereof, in an absorption base. Alternatively, the patient may be treated with a solution containing approximately 5% to 20% picolinic acid, or derivative, in deionized water. The topical preparation may be applied twice a day or in an alternative pharmacologically acceptable regimen.
# recombinant MPS-1 = recombinant MPS-1 (Homo sapiens, UniProt P42677); assay: Zinc dependent binding of MPS-1 to DNA, gel shift assays and 65Zn; assay type: biochemical
# Excerpt: MPS-1 is a ubiquitous tumor marker and cell growth stimulator and is described in detail in the inventor's U.S. Pat. No. Re.35,585 (No. 5,243,041). MPS-1 has one zinc finger domain of the type CCCC. […] This is detected by a change in the electrophoretic mobility of MPS-1 under non-denaturing conditions. These experiments indicate that picolinic acid and derivatives should remove zinc and denature various types of zinc finger or zinc ring proteins, whether known or heretofore undiscovered, including viral proteins such as nucleocapsid p7 proteins, as will be explained further. Furthermore, the inventor has determined that any chemical compound, whether known or heretofore undiscovered, that will remove the zinc (or other metal) and denature the proteins or that will form a ternary complex (protein-zinc-chelator) can be effective as a therapeutic agent or as an autologous immune response modulator, as will be discussed in greater detail below.
# [3] = tested on: Microbial and fungal growth; assay: Preservative use in foods and on fresh fruits
# Excerpt: as §1
# [4] = tested on: papilloma virus ulcerative lesion; assay: Treatment of ulcerative lesion with topical picolinic acid; assay type: in vivo, horse
# Method: The lesion was progressive, with total loss of hair over the area. The diagnosis was viral disease, i.e. papilloma virus, complicated by fungal infection. The horse was treated with conventional local antibiotic and chemical therapies for about four months.
# An aqueous solution of 10% picolinic acid in deionized water was applied every other day with a cotton swab over and around the lesion. The treatment continued for 45 days. The course of the regression of the viral lesion was as follows: […]
# LoVo cells = assay: Effects of picolinic acid on growth (total cell protein); assay type: cell-based
# Method: as §2
# WI-38 cells = assay: as above; assay type: cell-based
# Method: as §2
# LD-50 = settings: in vivo
# human papilloma viruses = assay: Treatment of patients with papilloma virus skin lesions (common warts); assay type: in vivo
# Method: Five patients ranging in age from 11 years to 52 years and each having at least one common wart induced by human papilloma viruses was treated with a topical preparation of picolinic acid. The topical preparation was either solution of 10% to 20% picolinic acid in deionized water or a topical ointment wherein 10% picolinic acid is incorporated into Aquaphor, i.e.1 g of picolinic acid in 10 g of Aquaphor.
# Excerpt for actinic lesions: Two patients with actinic lesions (average of 5 lesions per patient, each lesion being approximately 3 mm to 5 mm in diameter) were diagnosed as requiring liquid nitrogen removal of the lesions. The patients received a daily application of 10% picolinic acid in Aquaphor.
smiles,measurement,setting,value
"O=C(O)c1ccccn1 [picolinic acid, 2-Pyridine carboxylic acid]",cytotoxicity,transformed cells,cytotoxicity and cell death was observed
same,cell cycle arrest,transformed cells; short-term treatment,blocked in different phases of the cell cycle
same,stability as preservative,[1],highly stable
same,cytotoxic effects relative to LoVo cells,KB cells,not as pronounced as in the case of LoVo cells
same,growth and cytotoxicity compared with LoVo results,KB cells,Equivalent results were obtained
same,ulcer appearance,recurrent plantar wart; 10% solution in deionized water for one week,Central necrosis was noted
same,ulcer outcome,"recurrent plantar wart; then 10% in Aquaphor with patch, after an additional three weeks",resolved
same,control of metastatic cancer,metastatic cancer,effective
same,time until lesions resolved with scar tissue,[2],approximately 35 days
same,toxic effects,"normal cells; longer exposure, most normal cells",no toxic effects
same,cell cycle arrest,normal cells; short-term treatment,"arrests normal cells in G1, (Go)"
same,incorporation of iron into the cells,iron in the cells,inhibits
same,removal of radioiron from the cells,iron in the cells,effectively removes
same,regression of psoriasis,psoriasis,significant effect in inducing regression
same,removal of radioactive 65Zn from MPS-1,"recombinant MPS-1; CCCC zinc finger, electrophoretic mobility, non-denaturing conditions",remove radioactive ^65Zn from MPS-1
same,zinc dependent binding of recombinant MPS-1 to DNA,recombinant MPS-1; gel shift assays,inhibit
same,Microbial and fungal growth,[3],inhibited
same,lesion appearance,"[4]; 10% aqueous solution topical every other day, after 10 days",central necrosis
same,diameter of the lesion,"[4]; 10% aqueous solution topical, after 20 days, 3 inch at start",approximately 2 inches
same,diameter of the lesion,"[4]; 10% aqueous solution topical, after 30 days",about 1 inch
same,lesion outcome,"[4]; 10% aqueous solution topical, at 45 days",resolved with some scar tissue
same,recurrence,[4]; after three additional months,without evidence of recurring disease
same,lesion outcome,"actinic lesions; daily 10% picolinic acid in Aquaphor, approximately three weeks, two patients",completely cured
same,effects on normal skin,actinic lesions; in vivo,without any effects on normal skin
same,growth of LoVo cells,"LoVo cells; 3 mM picolinic acid, FIG. 2",inhibited
same,cytotoxicity,"LoVo cells; 3 mM, longer exposure 48-72 hours",cytotoxicity and cell death was observed
same,growth of normal WI-38 cells,"WI-38 cells; 3 mM picolinic acid, within 24 hours",inhibited
same,toxic effects,"WI-38 cells; 3 mM, up to 72 hours of treatment",no toxic effects
same,LD-50,LD-50,140 grams/70 Kg
same,resolution with ointment versus solution,human papilloma viruses; 10% picolinic acid in Aquaphor,faster resolution
same,wart appearance,"human papilloma viruses; topical 10-20% solution or 10% Aquaphor ointment, after seven days",central necrosis of the wart occurred
same,"course of disease, 10% versus 20% solutions",human papilloma viruses; topical solution in deionized water,no significant difference

# Reference: US6403618B1, “Agent and method for controlling angiogenesis” (Novactyl, Inc., priority 2000, dated 2002)
